{"source": "patent US10570401B2", "about": "“Compositions and method for destabilizing, altering, and dispersing biofilms” (priority 2013, dated 2020)", "key": {"[1]": {"system": "bacterial biofilm communities", "assay": "L-arginine versus D-arginine on bacterial biofilm communities", "type": "cell-based", "settings": "FIG. 11", "text": "Therefore the destabilizing effects of arginine are specific to the L-form."}, "[2]": {"system": "AI-2 production by multi-species biofilms", "assay": "AI-2 bioluminescence assay with Vibrio harveyi BB170 on microfluidics efflux of multi-species biofilms", "type": "cell-based", "settings": "fold induction of bioluminescence, increasing arginine concentrations (FIG. 10)", "text": "The AI-2 data are normalized to the “control” (non-supplemented saliva).\nValues were produced by first taking averages of 4 trials at each concentration and dividing them by the average for the negative control, creating an induction number. […] High AI-2 may also have a destabilizing effect on the community, which could explain or contribute to the structural changes seen in the biofilms."}, "[3]": {"system": "saliva derived community", "assay": "Community composition of saliva-derived biofilms by 454 pyrosequencing", "type": "cell-based", "description": "Black-colored bars represent data derived from the analysis of biofilms developed in flowing non-supplemented saliva while the grey-colored bars represent data derived from the analysis of biofilms developed in 500 mM supplemented saliva. (B) Showing changes in phyla (color coding as before). (C) Showing changes in composition of genera (key is from left to right in order from bottom to top in bar; Neisseria, Granulicatella, Streptococcus, etc).\n(§1) This example describes the impact of L-arginine on oral biofilms that contain species grown under conditions representative of the human oral cavity. […] Destabilization was expressed as loss of biofilm structure and change in bacterial community membership, as determined by confocal laser scanning microscopy and 454 pyrosequencing."}, "[4]": {"system": "pre-formed multi-species oral biofilms"}, "[5]": {"system": "multi-species oral biofilm communities", "assay": "Multi-species oral biofilms in static (non-flowing) microplate system, CLSM", "type": "cell-based", "settings": "500 mM, static microplate system (FIG. 6)", "text": "Upper renderings (A1-H1) are of the x-y plane. Middle renderings (A2-H2) are of the x-z plane. Lower renderings (A3-H3) represent an angled view (x-y-z). Bars represent 50 μm."}, "[6]": {"system": "S. gordonii biofilms", "assay": "S. gordonii biofilm formation in saliva, Bioflux microfluidics system", "type": "cell-based", "description": "(§2) The effects of arginine-dependent dosing of S. gordonii biofilms is assessed in a modified Bioflux microfluidics system. Human saliva is collected and pooled from ≥6 different volunteers (Cuadra-Saenz et al., Microbiology. 2012; 158(Pt 7):1783-95), diluted to 25%, and additional supplements (e.g. sucrose, haemin, BHI) added as required to simulate different conditions. Note, we grow robust biofilms in even non-supplemented saliva and pooling the saliva minimizes variation in salivary components. To obtain an indication of free arginine levels in pooled saliva, arginine is measured in ≥3 different pooled saliva samples using standard techniques (Jakubovics et al., supra; Van Wuyckhuyse et al., Journal of dental research. 1995; 74(2):686-90). The 24 channels of the Bioflux system are coated with saliva, inoculated with monocultures of S. gordonii (or multi-species biofilms harvested form saliva) and biofilms are developed at 37° C. with cell free saliva. After 20 h, cells are stained with live/dead stain and visualized using a Leica SPE CLSM. Biomass and structural biofilm parameters are quantified using COMSTAT (Heydorn et al., Microbiology. 2000; 146 (Pt 10):2395-407), ImageJ (Collins, Biotechniques. 2007; 43(1 Suppl):25-30), and IMARIS software (Bitplane, Switzerland)."}, "[7]": {"system": "multi-species oral biofilms", "assay": "Multi-species oral biofilms developed 20 h in flowing saliva (Bioflux microfluidic system), CLSM live/dead", "type": "cell-based", "description": "as §2, §1\nGreen signal indicates viable live cells and red signal indicates damaged/dead cells. […] Data derived from at-least 18 renderings across three experiments and standard deviations are shown in brackets. *P<0.05; **P<0.01; […]: significant differences from the CFS control."}, "[8]": {"system": "S. gordonii DL1", "assay": "Fluorescent reporter plasmid (pPE1010) expression in S. gordonii DL1 biofilms on exogenous AI-2", "type": "cell-based", "settings": "exogenously added AI-2 (FIG. 12B)", "text": "A plasmid (See e.g., FIG. 12) was utilized to monitor expression of reporter genes in the presence of arginine or AI-2. The pPE1010 backbone described in England et al. (Proc Natl Acad Sci USA. 2004 Nov. 30; 101(48):16917-22. Epub 2004 Nov. 16) was modified to express fluorescent genes such as GFP or Mcherry in S. gordonii DL1 or other species of streptococci. Specifically, promoters from differentially regulated genes are inserted upstream of a GFP or Mcherry gene harbored on pPE1010 (or similar streptococcal plasmid shuttle vector system) to be differentially expressed (FIGS. 12A and 12B). […] The plasmid provides constitutive-producing fluorescent probes for monitoring bacteria in biofilms and reporter systems that report arginine (or AI-2) concentrations in biofilms such as those found in dental plaque biofilms."}}}
{"molecule": "N=C(N)NCCC[C@@H](N)C(=O)O", "note": "[D-arginine, reference compound]", "values": [{"measurement": "disruption of bacterial biofilm communities", "setting": "[1]", "value": "does not have the same effect"}]}
{"molecule": "N=C(N)NCCC[C@H](N)C(=O)O", "note": "[L-arginine]", "values": [{"measurement": "amount of AI-2 produced from multi-species biofilms", "setting": "[2]", "value": "increases as the concentrations of arginine used to treat them increases"}, {"measurement": "disruption of bacterial biofilm communities", "setting": "[1]", "value": "disrupts bacterial biofilm communities"}, {"measurement": "proportion of Veillonella species and non-cariogenic streptococci in biofilms", "setting": "[3]; 500 mM treated biofilms", "value": "increased"}, {"measurement": "bacterial diversity (operational taxonomic units, OTU)", "setting": "[3]; prolonged exposure to 500 mM (FIG. 5A)", "value": "increase in bacterial diversity"}, {"measurement": "destabilization of pre-formed biofilms", "setting": "[4]; 500 mM (FIG. 8)", "value": "destabilizes pre-formed multi-species oral biofilms of differing developmental age"}, {"measurement": "penetration of CPC into biofilm", "setting": "[4]; 500 mM L-arginine, CPC 0.01 or 0.05% (FIG. 9)", "value": "enhance the penetration of CPC"}, {"measurement": "biofilm architecture", "setting": "[5]", "value": "makes the biofilm more diffuse with respect to architecture"}, {"measurement": "biofilm biomass", "setting": "[5]", "value": "reduce biofilm biomass"}, {"measurement": "killing", "setting": "[5]", "value": "No substantial killing was observed"}, {"measurement": "extent of biofilm present", "setting": "[6]; 500 mM arginine, saliva, 20 h (FIG. 3)", "value": "significantly reduce the extent of biofilm present"}, {"measurement": "biofilm formation by S. gordonii", "setting": "[6]; high (millimolar) concentrations of arginine, dose-dependent", "value": "abrogate biofilm formation by S. gordonii"}]}
{"molecule": "Cl.N=C(N)NCCC[C@H](N)C(=O)O", "note": "[LAHCL, L-arginine monohydrochloride]", "values": [{"measurement": "changes in pH", "setting": "[7]; HCl balanced L-arginine in human saliva", "value": "No substantial changes in pH"}, {"measurement": "destabilization of oral biofilms (loss of biofilm structure, change in community membership)", "setting": "[7]; human saliva inoculum, 25% filter-sterilized saliva", "value": "destabilizes oral biofilms in a concentration dependent manner"}, {"measurement": "antimicrobial effects", "setting": "[7]; only detected as a consequence of biofilm perturbation", "value": "Very limited antimicrobial effects"}]}
{"molecule": "autoinducer-2 [AI-2]", "values": [{"measurement": "reporter expression from 50S ribosomal protein (SGO_1192) promoter", "setting": "[8]", "value": "minimal differential expression"}, {"measurement": "reporter expression from catabolite control protein A (SGO_0773; ccpA) promoter", "setting": "[8]", "value": "drastically different gene expression"}]}
